Patent publication US11000033B2, “Ketone or oxime compound, and herbicide” (NISSAN CHEMICAL CORPORATION, priority 2014, dated 2021)

Assays:
Assay type in all cases: in vivo
[1] = test system: Echinochloa oryzacola Vasing.; assay: Test Example 1: herbicidal activity, application before weed generation in submerged conditions (symbol A); conditions: application herbicide amount 320 g/ha
Outline: (§1)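 Pre-emergence, paddy conditions: emulsifiable formulation diluted in water, dosed onto floodwater (4 cm depth) on sowing day. Alluvial soil; weeds sown mixed; rice transplanted at 2.5-leaf stage. Greenhouse 25–30 °C, 3 wk. Score 0–5 (5 = ≥90% kill, 0 = ≤5%).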

Scirpus juncoides = assay: Test Example 1: herbicidal activity, application before weed generation in submerged conditions (symbol B); conditions: application herbicide amount 320 g/ha
Outline: as §1

transplanted rice plant = assay: Test Example 1: effect on crop, application before weed generation in submerged conditions (symbol a); conditions: application herbicide amount 320 g/ha
Outline: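 Rice at 2.5 leaf stage transplanted into submerged soil (4 cm depth) sown with three weed species; herbicide applied before weed emergence.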

Monochoria vaginalis = assay: Test Example 2: herbicidal activity, application during weed generation in submerged conditions (symbol C); conditions: Table 23; application herbicide amount 320 g/ha; grade 0-5 by criteria of Test Example 1
Outline: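 Scoring of herbicidal effect took place 3 weeks after treatment, using the criteria of the earlier test. Treatment was water-surface application of diluted emulsifiable compound at a set dose. Plants were at one- to two-leaf stage in submerged alluvial soil (4 cm depth), greenhouse 25-30° C.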

[2] = test system: directly sowed rice plant; assay: Test Example 3: effect on crop by foliage application, Wagner pot (symbol b); conditions: application herbicide amount 320 g/ha
Outline: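 Steps: fill a 1/10000-are Wagner pot with alluvial soil; add water and mix to submerge at 0.1–0.5 cm depth; sow rice plus Echinochloa crus-galli var. crus-galli, Leptochloa chinensis and Cyperus difformis; grow in a 25–30 °C greenhouse.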

Avena fatua = assay: Test Example 4: herbicidal effect by soil treatment (symbol I)
Outline: (§2)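 Seeds were sown in sterilized diluvial soil, covered with about 1.5 cm of soil, and the soil surface was sprayed with a water-diluted emulsion of the compound at a predetermined rate. Plants grew in a greenhouse at 25° C. to 30° C.; effects were scored visually 3 weeks after application.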

Alopecurus myosuroides = assay: Test Example 4: herbicidal effect by soil treatment (symbol J)
Outline: as §2

Abutilon theophrasti = assay: Test Example 4: herbicidal effect by soil treatment (symbol M)
Outline: as §2

Amaranthus retroflexus = assay: Test Example 4: herbicidal effect by soil treatment (symbol N)
Outline: as §2

Veronica persica = assay: Test Example 4: herbicidal effect by soil treatment (symbol R)
Outline: as §2

soybean = assay: Test Example 4: effect on crop by soil treatment (symbol d); conditions: for d: soybean, effect on crop grade: application herbicide amount 320 g/ha
Outline: (§3)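 Plants are raised in a greenhouse (25° C. to 30° C.) from spot-sown seed, which sits under about 1.5 cm of sterilized diluvial soil in a box shared with weed species.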

beet = assay: Test Example 4: effect on crop by soil treatment (symbol f); conditions: for f: beet, effect on crop grade: application herbicide amount 320 g/ha
Outline: as §3

rapeseed = assay: Test Example 4: effect on crop by soil treatment (symbol g); conditions: for g: rapeseed, effect on crop grade: application herbicide amount 320 g/ha
Outline: as §3

Digitaria ciliaris = assay: Test Example 5: herbicidal effect by foliage application, plastic box (symbol F); conditions: 320 g/ha, 3 weeks after application
Outline: (§4)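 Emulsion formulation, diluted with water to the intended rate, was applied uniformly to leaves by small sprayer. Recipients were 14-day greenhouse-grown seedlings (25° C. to 30° C.). Assessment followed at 3 weeks.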

[3] = test system: Echinochloa crus-galli var. crus-galli; assay: Test Example 5: herbicidal effect by foliage application, plastic box (symbol H); conditions: 320 g/ha, 3 weeks after application
Outline: as §4

[4] = application herbicide amount 320 g/ha

| SMILES | Herbicidal effect grade, A: Echinochloa oryzacola Vasing. [1] | Herbicidal effect grade, B: Scirpus juncoides (Scirpus juncoides) | Effect grade on crop, a: transplanted rice plant (transplanted rice plant) | Herbicidal effect grade, C: Monochoria vaginalis (Monochoria vaginalis) | effect on crop b (directly sowed rice plant), grade 0-5 [2] | I: Avena fatua, herbicidal effect grade (Avena fatua; [4]) | J: Alopecurus myosuroides, herbicidal effect grade (Alopecurus myosuroides; [4]) | M: Abutilon theophrasti, herbicidal effect grade (Abutilon theophrasti; [4]) | N: Amaranthus retroflexus, herbicidal effect grade (Amaranthus retroflexus; [4]) | R: Veronica persica, herbicidal effect grade (Veronica persica; [4]) | d: soybean, effect on crop grade (soybean) | f: beet, effect on crop grade (beet) | g: rapeseed, effect on crop grade (rapeseed) | F: Digitaria ciliaris, herbicidal effect grade (Digitaria ciliaris) | H: Echinochloa crus-galli var. crus-galli, herbicidal effect grade [3] | further results |
| --- | --- | --- | --- | --- | --- | --- | --- | --- | --- | --- | --- | --- | --- | --- | --- | --- |
| CON=C(C)CC1CC(O)=C(c2c(C)cc(OCC(F)(F)F)cc2C)C1=O (stereo not drawn) [6-049] | 5 (Herbicidal ratio of 90% or more (almost completely withered)) | 5 (Herbicidal ratio of 90% or more (almost completely withered)) | 5 (Herbicidal ratio of 90% or more (almost completely withered)) | 3 (Herbicidal ratio of 40% or higher and lower than 70%) | 5 (Herbicidal ratio of 90% or more (almost completely withered)) | 5 (Herbicidal ratio of 90% or more (almost completely withered)) | 5 (Herbicidal ratio of 90% or more (almost completely withered)) | 4 (Herbicidal ratio of 70% or higher and lower than 90%) | 4 (Herbicidal ratio of 70% or higher and lower than 90%) | 4 (Herbicidal ratio of 70% or higher and lower than 90%) | 0 (Herbicidal ratio of 5% or lower (almost no effect)) | 3 (Herbicidal ratio of 40% or higher and lower than 70%) | 5 (Herbicidal ratio of 90% or more (almost completely withered)) | 5 (Herbicidal ratio of 90% or more (almost completely withered)) | 5 (Herbicidal ratio of 90% or more (almost completely withered)) |  |
| CON=C(C)CC1CC(OS(=O)(=O)C2CC2)=C(c2c(C)cc(C)cc2C)C1=O (stereo not drawn) [1-143] | 4 (Herbicidal ratio of 70% or higher and lower than 90%) | 4 (Herbicidal ratio of 70% or higher and lower than 90%) | 5 (Herbicidal ratio of 90% or more (almost completely withered)) | 3 (Herbicidal ratio of 40% or higher and lower than 70%) | 5 (Herbicidal ratio of 90% or more (almost completely withered)) |  |  |  |  |  |  |  |  |  |  | I: Avena fatua, herbicidal effect grade (Avena fatua; 320 g/ha): 2 (Herbicidal ratio of 20% or higher and lower than 40%); J: Alopecurus myosuroides, herbicidal effect grade (Alopecurus myosuroides; 320 g/ha): 2 (Herbicidal ratio of 20% or higher and lower than 40%); M: Abutilon theophrasti, herbicidal effect grade (Abutilon theophrasti; 320 g/ha): 0 (Herbicidal ratio of 5% or lower (almost no effect)); N: Amaranthus retroflexus, herbicidal effect grade (Amaranthus retroflexus; 320 g/ha): 0 (Herbicidal ratio of 5% or lower (almost no effect)); R: Veronica persica, herbicidal effect grade (Veronica persica; 320 g/ha): 0 (Herbicidal ratio of 5% or lower (almost no effect)); d: soybean, effect grade on crop (soybean; 320 g/ha): 0 (Herbicidal ratio of 5% or lower (almost no effect)); f: beet, effect grade on crop (beet; 320 g/ha): 0 (Herbicidal ratio of 5% or lower (almost no effect)); g: rapeseed, effect grade on crop (rapeseed; 320 g/ha): 0 (Herbicidal ratio of 5% or lower (almost no effect)); F: Digitaria ciliaris, herbicidal effect (criteria 0-5) (Digitaria ciliaris): 5 (Herbicidal ratio of 90% or more (almost completely withered)); H: Echinochloa crus-galli var. crus-galli, herbicidal effect (criteria 0-5) [3]: 5 (Herbicidal ratio of 90% or more (almost completely withered)) |
| CCc1cc(C#C[Si](C)(C)C)cc(C)c1C1=C(O)CC(CC(C)=NOC)C1=O (mixture of isomers) [6-008] | 5 (Herbicidal ratio of 90% or more (almost completely withered)) | 5 (Herbicidal ratio of 90% or more (almost completely withered)) | 5 (Herbicidal ratio of 90% or more (almost completely withered)) | 5 (Herbicidal ratio of 90% or more (almost completely withered)) | 5 (Herbicidal ratio of 90% or more (almost completely withered)) | 4 (Herbicidal ratio of 70% or higher and lower than 90%) | 4 (Herbicidal ratio of 70% or higher and lower than 90%) | 0 (Herbicidal ratio of 5% or lower (almost no effect)) | 0 (Herbicidal ratio of 5% or lower (almost no effect)) | 0 (Herbicidal ratio of 5% or lower (almost no effect)) | 0 (Herbicidal ratio of 5% or lower (almost no effect)) | 0 (Herbicidal ratio of 5% or lower (almost no effect)) | 0 (Herbicidal ratio of 5% or lower (almost no effect)) | 0 (Herbicidal ratio of 5% or lower (almost no effect)) | 5 (Herbicidal ratio of 90% or more (almost completely withered)) |  |
| CON=C(C)CC1CC(O)=C(c2c(C)cc(-c3cccc(Cl)c3)cc2C)C1=O (mixture of isomers) [6-034] | 5 (Herbicidal ratio of 90% or more (almost completely withered)) | 5 (Herbicidal ratio of 90% or more (almost completely withered)) | 5 (Herbicidal ratio of 90% or more (almost completely withered)) | 3 (Herbicidal ratio of 40% or higher and lower than 70%) | 5 (Herbicidal ratio of 90% or more (almost completely withered)) | 1 (Herbicidal ratio of 5% or higher and lower than 20%) | 5 (Herbicidal ratio of 90% or more (almost completely withered)) | 1 (Herbicidal ratio of 5% or higher and lower than 20%) | 2 (Herbicidal ratio of 20% or higher and lower than 40%) | 4 (Herbicidal ratio of 70% or higher and lower than 90%) | 0 (Herbicidal ratio of 5% or lower (almost no effect)) | 0 (Herbicidal ratio of 5% or lower (almost no effect)) | 1 (Herbicidal ratio of 5% or higher and lower than 20%) | 5 (Herbicidal ratio of 90% or more (almost completely withered)) | 5 (Herbicidal ratio of 90% or more (almost completely withered)) |  |
